Experimental data taken from patent US7592424B2, “Ion channel-like polypeptide and use thereof” (Kyoto University, priority 2004, dated 2009).

Target: Ciona intestinalis Ci-VSP cytoplasmic domain (phosphatase domain, residues 248-576 of Ci-VSP, SEQ ID NO: 2), wild type, GST fusion protein (GST-Ci-VSP) (Ciona intestinalis, UniProt Q4W8A1)
Assay: Malachite green assay of phosphoinositide phosphatase activity at various PIP3 concentrations, Michaelis-Menten fit
Format: biochemical
Details: substrate PIP3, initial rate V0 at t=0, Michaelis-Menten fit (FIG. 4c)
Protocol: To express N-terminal fused protein of the cytoplasmic domain of Ci-VSP with the GST gene, the cDNA encoding residues 248-576 of Ci-VSP was subcloned into the EcoRI-XhoI site of pGEX4T3 (Amersham Pharmacia). GST-fused protein was expressed and purified from E. coli JM109 with glutathione-sepharose CL-4B (Amersham Pharmacia). Phosphatase activity of Ci-VSP was measured with the methods previously adopted for PTEN phosphatase.
To see whether the Ci-VSP has phosphatase activity that uses PI(3, 4, 5)P3 as a substrate, a fusion protein of GST and the whole C-terminal cytoplasmic region of Ci-VSP was synthesized. FIG. 3b represents phosphoinositide phosphatase activity of the fusion protein of glutathione s-transferase and the phosphatase-like domain of Ci-VSP by a malachite green assay using PI(3, 4, 5)P3 as a substrate. […] BIOMOL GREEN™ reagent (Biomol, Plymouth Meeting, Pa.) was added to the sample and […] was measured by using H2O as a reference. […]
Enzyme activity of Ci-VSP was examined with thin layer chromatography (TLC). […] Where there is enzyme activity using PI(3, 4, 5)P3 as a substrate, the degraded product PIP2(NBD6-diC6-PI(4, 5)P2) is detected. […]
Malachite green imparts pale yellow in the absence of inorganic phosphate. […] Thus, by measuring absorbance of malachite green at 620 nm, the inorganic phosphate that is generated by the degradation of PI(3, 4, 5)P3 to PI(4, 5)P2 can be quantified. […]

Chain of Ciona intestinalis Ci-VSP cytoplasmic domain (phosphatase domain, residues 248-576 of Ci-VSP, SEQ ID NO: 2), wild type, GST fusion protein (GST-Ci-VSP) (Q4W8A1 entry or part of it): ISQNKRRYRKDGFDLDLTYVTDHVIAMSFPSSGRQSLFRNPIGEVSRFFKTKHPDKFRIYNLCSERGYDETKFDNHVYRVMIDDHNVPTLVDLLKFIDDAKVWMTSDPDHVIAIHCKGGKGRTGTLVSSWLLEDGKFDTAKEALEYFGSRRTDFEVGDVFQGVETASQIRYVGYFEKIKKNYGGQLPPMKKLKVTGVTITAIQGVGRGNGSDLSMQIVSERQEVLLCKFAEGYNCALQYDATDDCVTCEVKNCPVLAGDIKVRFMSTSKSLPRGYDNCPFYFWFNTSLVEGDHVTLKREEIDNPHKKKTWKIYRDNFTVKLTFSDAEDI

For PIP3, the “Vmax (maximum rate)” value was 0.292 nmol/min/µg and the Km (read-out: Km (substrate concentration required for 1/2 Vmax)) was 36 µM.
